In patent publication US20220031800A1, “PEPTIDES FOR TREATING NON-EXUDATIVE MACULAR DEGENERATION AND OTHER DISORDERS OF THE EYE” (Allegro Pharmaceuticals, LLC, priority 2019, published 2022):
Square brackets hold non-standard residues; d marks the D form. Peptide text beside a SMILES is read from it. Cya = N[C@@H](CS(=O)(=O)O)C(=O)O

Tested on: study eye of subjects with intermediate non-exudative AMD
Assay: SD-OCT Analysis 1 (thickness and volume of retinal layers, EZ defect area, GA)
Format: in vivo, human
Procedure: Numerous study assessments were conducted at various time points throughout the study. Included among these study assessments were; refractive eye examinations, determinations of BCVA AND low-luminance BCVA, Lanthony D-15 color vision test, measurement of intraocular pressure (IOP), Indirect ophthalmoscopy/dilated fundus examinations and spectral-domain optical coherence tomography (SD-OCT). Also, blood and saliva samples were obtained from each subject for genetic analysis. The above-listed study assessments were performed at the time points indicated in Table 1, below: The OCT scans were analyzed by two (2) unrelated experts. The mean thickness and mean volume of retinal subfields and layer segments were analyzed at screening (pre-treatment) and at Week 12 for Group 1 subjects and at Week 32 for Group 2 subjects. In addition to the quantitative analysis of OCT images, a qualitative assessment of the OCT images at baseline (pre-treatment) was performed to identify GA anywhere in the retina, in the fovea (1-mm central subfield), and in the foveal center. Quantitative analysis of the OCT images was also performed to measure changes in anatomical measurements over time.

[1] = baseline to Week 32, nonresponder eyes n = 12
[2] = baseline to Week 32, responder eyes n = 10
[3] = baseline to Week 32, responder vs nonresponder eyes
[4] = baseline to Week 32, risuteganib arm n = 22
[5] = risuteganib arm (Week 32) vs sham arm (Week 12)

## C[C@@H](O)[C@H](NC(=O)[C@H](CS(=O)(=O)O)NC(=O)CNC(=O)[C@H](CCCNC(=N)N)NC(=O)CN)C(=O)N1CCC[C@H]1C(=O)O [risuteganib, Glycyl-L-arginylglycyl-3-sulfo-L-alanyl-L-threonyl-L-proline] (H-GRG[Cya]TP-OH)
[1]
  Change in EZ defect area: 0.014 mm^2
  Mean change in mean thickness: Inner retina, central subfield: −2.250 μm
  Mean change in mean thickness: Inner retina, foveal center: 9.917 μm
  Mean change in mean thickness: Outer retina, central subfield: −5.417 μm
  Mean change in mean thickness: Outer retina, foveal center: −17.833 μm
  Mean change in mean thickness: Photoreceptor, central subfield: −1.333 μm
  Mean change in mean thickness: Photoreceptor, foveal center: 3.833 μm
  Mean change in mean thickness: RPEDC, central subfield: 1.083 μm
  Mean change in mean thickness: RPEDC, foveal center: −2.250 μm
  Mean change in total volume: Inner retina, central subfield: −0.002 mm^3
  Mean change in total volume: Outer retina, central subfield: −0.004 mm^3
  Mean change in total volume: Photoreceptor, central subfield: −0.001 mm^3
  Mean change in total volume: RPEDC, central subfield: 0.001 mm^3
[2]
  Change in EZ defect area: 0.020 mm^2
  Mean change in mean thickness: Inner retina, central subfield: 5.200 μm
  Mean change in mean thickness: Inner retina, foveal center: 8.400 μm
  Mean change in mean thickness: Outer retina, central subfield: −2.400 μm
  Mean change in mean thickness: Outer retina, foveal center: −8.000 μm
  Mean change in mean thickness: Photoreceptor, central subfield: −1.000 μm
  Mean change in mean thickness: Photoreceptor, foveal center: 3.100 μm
  Mean change in mean thickness: RPEDC, central subfield: −9.800 μm
  Mean change in mean thickness: RPEDC, foveal center: −8.100 μm
  Mean change in total volume: Inner retina, central subfield: 0.004 mm^3
  Mean change in total volume: Outer retina, central subfield: −0.002 mm^3
  Mean change in total volume: Photoreceptor, central subfield: −0.001 mm^3
  Mean change in total volume: RPEDC, central subfield: −0.008 mm^3
[3]
  Change in EZ defect area, Difference: 0.006 mm^2
  Mean change in mean thickness: Inner retina, central subfield, Difference: 7.450 μm
  Mean change in mean thickness: Inner retina, foveal center, Difference: −1.517 μm
  Mean change in mean thickness: Outer retina, central subfield, Difference: 3.017 μm
  Mean change in mean thickness: Outer retina, foveal center, Difference: 9.833 μm
  Mean change in mean thickness: Photoreceptor, central subfield, Difference: 0.333 μm
  Mean change in mean thickness: Photoreceptor, foveal center, Difference: −0.733 μm
  Mean change in mean thickness: RPEDC, central subfield, Difference: −10.883 μm
  Mean change in mean thickness: RPEDC, foveal center, Difference: −5.850 μm
  Mean change in total volume: Inner retina, central subfield, Difference: 0.006 mm^3
  Mean change in total volume: Outer retina, central subfield, Difference: 0.003 mm^3
  Mean change in total volume: Photoreceptor, central subfield, Difference: 0.000 mm^3
  Mean change in total volume: RPEDC, central subfield, Difference: −0.009 mm^3
[4]
  Change in EZ defect area: 0.015 mm^2
  Mean change in mean thickness: Inner retina, central subfield: 1.565 μm
  Mean change in mean thickness: Inner retina, foveal center: 6.696 μm
  Mean change in mean thickness: Inner retina, inferior subfield: −0.065 μm
  Mean change in mean thickness: Inner retina, nasal subfield: −0.783 μm
  Mean change in mean thickness: Inner retina, superior subfield: −3.022 μm
  Mean change in mean thickness: Inner retina, temporal subfield: 0.217 μm
  Mean change in mean thickness: Outer retina, central subfield: −3.978 μm
  Mean change in mean thickness: Outer retina, foveal center: −9.543 μm
  Mean change in mean thickness: Outer retina, inferior subfield: −2.457 μm
  Mean change in mean thickness: Outer retina, nasal subfield: −1.196 μm
  Mean change in mean thickness: Outer retina, superior subfield: −0.065 μm
  Mean change in mean thickness: Outer retina, temporal subfield: −2.283 μm
  Mean change in mean thickness: Photoreceptor, central subfield: −1.087 μm
  Mean change in mean thickness: Photoreceptor, foveal center: 1.717 μm
  Mean change in mean thickness: Photoreceptor, inferior subfield: −0.239 μm
  Mean change in mean thickness: Photoreceptor, nasal subfield: −0.087 μm
  Mean change in mean thickness: Photoreceptor, superior subfield: 0.130 μm
  Mean change in mean thickness: Photoreceptor, temporal subfield: −0.152 μm
  Mean change in mean thickness: RPEDC, central subfield: −1.500 μm
  Mean change in mean thickness: RPEDC, foveal center: −1.652 μm
  Mean change in mean thickness: RPEDC, inferior subfield: 0.457 μm
  Mean change in mean thickness: RPEDC, nasal subfield: 0.739 μm
  Mean change in mean thickness: RPEDC, superior subfield: 1.739 μm
  Mean change in mean thickness: RPEDC, temporal subfield: 0.870 μm
  Mean change in total volume: Inner retina, central subfield: 0.001 mm^3
  Mean change in total volume: Inner retina, inferior subfield: 0.000 mm^3
  Mean change in total volume: Inner retina, nasal subfield: −0.001 mm^3
  Mean change in total volume: Inner retina, superior subfield: −0.005 mm^3
  Mean change in total volume: Inner retina, temporal subfield: 0.000 mm^3
  Mean change in total volume: Outer retina, central subfield: −0.003 mm^3
  Mean change in total volume: Outer retina, inferior subfield: −0.004 mm^3
  Mean change in total volume: Outer retina, nasal subfield: −0.002 mm^3
  Mean change in total volume: Outer retina, superior subfield: −0.000 mm^3
  Mean change in total volume: Outer retina, temporal subfield: −0.004 mm^3
  Mean change in total volume: Photoreceptor, central subfield: −0.001 mm^3
  Mean change in total volume: Photoreceptor, inferior subfield: −0.001 mm^3
  Mean change in total volume: Photoreceptor, nasal subfield: −0.000 mm^3
  Mean change in total volume: Photoreceptor, superior subfield: 0.000 mm^3
  Mean change in total volume: Photoreceptor, temporal subfield: −0.000 mm^3
  Mean change in total volume: RPEDC, central subfield: −0.001 mm^3
  Mean change in total volume: RPEDC, inferior subfield: 0.001 mm^3
  Mean change in total volume: RPEDC, nasal subfield: 0.001 mm^3
  Mean change in total volume: RPEDC, superior subfield: 0.003 mm^3
  Mean change in total volume: RPEDC, temporal subfield: 0.001 mm^3
[5]
  Change in EZ defect area, Difference: 0.025 mm^2
  Mean change in mean thickness: Inner retina, central subfield, Difference: 0.690 μm
  Mean change in mean thickness: Inner retina, foveal center, Difference: 15.404 μm
  Mean change in mean thickness: Inner retina, inferior subfield, Difference: −1.607 μm
  Mean change in mean thickness: Inner retina, nasal subfield, Difference: −0.949 μm
  Mean change in mean thickness: Inner retina, superior subfield, Difference: −4.188 μm
  Mean change in mean thickness: Inner retina, temporal subfield, Difference: 0.092 μm
  Mean change in mean thickness: Outer retina, central subfield, Difference: −3.812 μm
  Mean change in mean thickness: Outer retina, foveal center, Difference: −14.794 μm
  Mean change in mean thickness: Outer retina, inferior subfield, Difference: 0.460 μm
  Mean change in mean thickness: Outer retina, nasal subfield, Difference: 1.388 μm
  Mean change in mean thickness: Outer retina, superior subfield, Difference: 0.768 μm
  Mean change in mean thickness: Outer retina, temporal subfield, Difference: −1.158 μm
  Mean change in mean thickness: Photoreceptor, central subfield, Difference: −2.545 μm
  Mean change in mean thickness: Photoreceptor, foveal center, Difference: 1.342 μm
  Mean change in mean thickness: Photoreceptor, inferior subfield, Difference: −0.781 μm
  Mean change in mean thickness: Photoreceptor, nasal subfield, Difference: −0.379 μm
  Mean change in mean thickness: Photoreceptor, superior subfield, Difference: −0.161 μm
  Mean change in mean thickness: Photoreceptor, temporal subfield, Difference: −0.694 μm
  Mean change in mean thickness: RPEDC, central subfield, Difference: −0.167 μm
  Mean change in mean thickness: RPEDC, foveal center, Difference: −1.402 μm
  Mean change in mean thickness: RPEDC, inferior subfield, Difference: 1.623 μm
  Mean change in mean thickness: RPEDC, nasal subfield, Difference: −0.511 μm
  Mean change in mean thickness: RPEDC, superior subfield, Difference: 2.739 μm
  Mean change in mean thickness: RPEDC, temporal subfield, Difference: 2.536 μm
  Mean change in total volume: Inner retina, central subfield, Difference: 0.001 mm^3
  Mean change in total volume: Inner retina, inferior subfield, Difference: −0.002 mm^3
  Mean change in total volume: Inner retina, nasal subfield, Difference: −0.002 mm^3
  Mean change in total volume: Inner retina, superior subfield, Difference: −0.007 mm^3
  Mean change in total volume: Inner retina, temporal subfield, Difference: 0.000 mm^3
  Mean change in total volume: Outer retina, central subfield, Difference: −0.003 mm^3
  Mean change in total volume: Outer retina, inferior subfield, Difference: 0.001 mm^3
  Mean change in total volume: Outer retina, nasal subfield, Difference: 0.002 mm^3
  Mean change in total volume: Outer retina, superior subfield, Difference: 0.001 mm^3
  Mean change in total volume: Outer retina, temporal subfield, Difference: −0.002 mm^3
  Mean change in total volume: Photoreceptor, central subfield, Difference: −0.002 mm^3
  Mean change in total volume: Photoreceptor, inferior subfield, Difference: −0.002 mm^3
  Mean change in total volume: Photoreceptor, nasal subfield, Difference: −0.001 mm^3
  Mean change in total volume: Photoreceptor, superior subfield, Difference: −0.000 mm^3
  Mean change in total volume: Photoreceptor, temporal subfield, Difference: −0.001 mm^3
  Mean change in total volume: RPEDC, central subfield, Difference: −0.000 mm^3
  Mean change in total volume: RPEDC, inferior subfield, Difference: 0.002 mm^3
  Mean change in total volume: RPEDC, nasal subfield, Difference: −0.001 mm^3
  Mean change in total volume: RPEDC, superior subfield, Difference: 0.005 mm^3
  Mean change in total volume: RPEDC, temporal subfield, Difference: 0.004 mm^3
